The values that follow come from patent publication US20150057357A1, “BIS (THIOHYDRAZIDE AMIDE) COMPOUNDS FOR TREATING CANCERS” (The Board of Trustees of The Leland Stanford Junior …, priority 2012, published 2015).

Assay [1] concerns basal-like breast cancer cells (BT549, HCC1806, MDAMB468). The experiment in a line: MTT drug sensitivity assay, basal-like breast cancer cells. The class given is cell-based, human. The source says:
(§1) Human breast cell lines represented the normal breast (MCF12A), basal-like breast cancer (BT549, HCC1806, MDAMB468), BRCA1-mutated breast cancer (HCC1937, SUM149PT, SUM1315MO2), and luminal breast cancer (BT474, MDAMB361, and T47D). Stable cell lines expressing shRNA to hOGG1 (shOGG1) or a non-targeting control (shCTRL) and BRCA1^+/+ and BRCA1^−/− mouse mammary epithelial cells have been previously described (E. Alli, V. B. Sharma, P. Sunderesakumar, J. M. Ford, Defective repair of oxidative dna damage in triple-negative breast cancer confers sensitivity to inhibition of poly(ADP-ribose) polymerase, Cancer Res, 69, 2009, 3589-3596). All cell lines were maintained at 37° C. and 5% CO2.
(§2) Cells were exposed to increasing concentrations of elesclomol and incubated at 37° C. in the presence of 5% CO2 for 96 hours. Cellular sensitivity was then determined by MTT assay and expressed as a percentage of the vehicle control (DMSO). Each data point represents the average of quadruplicate determinations +/−S.D. Images were obtained under 10× objective and are representative.
(§3) Cell lines that represent the normal breast or BRCA1-mutated, basal-like or luminal breast cancers were examined for sensitivity to elesclomol. Shown in FIG. 1 are images of BRCA-1 mutated, basal-like or luminal breast cancer cell cultures after treatment with 0 μM, 0.2 μM or 1 μM elesclomol. […]

Assay [2] concerns normal breast cells (MCF12A). Briefly: MTT drug sensitivity assay, normal breast cells. The class given is cell-based, human. The note with it: concentrations of up to 1 μM, 96 hours, FIG. 2.
Source text: as §1, §2, §3
Background: Formazan colour is commonly taken as a measure of viable cells.

Assay [3] relates to luminal breast cancer cells (BT474, MDAMB361, T47D). The experiment in a line: MTT drug sensitivity assay, luminal breast cancer cells. Conditions: concentrations of up to 1 μM, 96 hours, FIG. 2. The class given is cell-based, human.
Source text: as §1, §2, §3

For assay [4], the system named is cell lines deficient in the hOOG1 DNA glycosylase (shOGG1-A and sh-OGG1-B). Briefly: MTT drug sensitivity assay, base excision repair deficient cells. The class given is cell-based. The note with it: shOGG1-A and sh-OGG1-B versus isogenic controls shCTRL-A and shCTRL-B; FIG. 3.
Source text: as §1, §2
Two different cell lines deficient in the hOOG1 DNA glycosylase that initiates base excision repair (shOGG1-A and sh-OGG1-B) and their isogenic control cells lines (shCTRL-A and shCTRL-B) were examined for sensitivity to elesclomol.

In assay [5] the test system is BRCA1-mutated breast cancer cells (HCC1937, SUM149PT, SUM1315MO2). The experiment in a line: MTT drug sensitivity assay, BRCA1-mutated breast cancer cells. The class given is cell-based, human.
Source text: as §1, §2, §3

Turning to `CN(NC(=O)CC(=O)NN(C)C(=S)c1ccccc1)C(=S)c1ccccc1` [elesclomol], the “sensitivity to elesclomol (cellular viability dose-response)” value in assay [1] (basal-like breast cancers compared to normal breast cells or luminal breast cancer cells, FIG. 1, FIG. 2) is listed as “increased sensitivity”; in assay [5] (BRCA1-mutated breast cancers compared to normal breast cells or luminal breast cancer cells, FIG. 1, FIG. 2), “increased sensitivity”. Besides, the induced cell death entry in assay [1] (concentrations of up to 1 μM, 96 hours, basal-like breast cancer cells, FIG. 2) is recorded as “up to 75%”; in assay [5] (concentrations of up to 1 μM, 96 hours, BRCA1-mutated breast cancer cells, FIG. 2) it was “up to 95%”. The “effect of treatment on cells (cell death)” value in assay [2] and in assay [3] was “remained unaffected” each time. For the same compound, the “sensitivity to elesclomol (cell viability, MTT)” value in assay [4] is on record as “increased sensitivity”.
